In patent publication US20110045073A1, “METHODS AND COMPOSITIONS OF SPHINGOLIPID FOR PREVENTING AND TREATING MICROBIAL INFECTIONS” (priority 2008, published 2011):

Columns and labels:
Type in all cases: cell-based, Candida albicans
C. albicans (ATTC 10231) [1] = assay: microdilution viability assay (plate assay, CFU count); conditions: 1 mM PPB, 60 min at 30° C., CFUs counted
Description: C. albicans (ATTC 10231), cultured aerobically at 30° C. on Sabouraud dextrose agar plates (SDA, Oxoid, Hampshire, UK) was suspended in 25 ml of Sabouraud dextrose broth in a 100 ml erlenmeyer flask. After 20 h of incubation at 30° C., 1 ml from this suspension was sub-cultured for 1-2 h in 20 ml of Sabouraud dextrose broth, to obtain a mid-log phase culture. Cells were washed twice in 1 mM potassium phosphate (PPB) or 5 mM Tris (pH 7.2), and resuspended in the same buffer to a cell density of 2 McFarland (McF) (approximately 10^7 cells/ml). The effects of PHS and Hst5 on the viability of C. albicans were determined in a microdilution viability assay. 50 μl aliquots from a mid-log phase culture of C. albicans were incubated with equal volumes of either peptide or PHS solutions (0.3 to 100 μM) and incubated at 30° C. for 60 min. The incubation mixtures were appropriately diluted (200- to 500-fold) in PBS and 25 μl aliquots were plated on SDA. After 48 h incubation at 30° C. the numbers of CFUs were counted. All experiments were repeated at least three times in duplo. The effect of PHS-treatment on the viability of C. albicans was determined in a micro-dilution viability assay, at the concentration range 0-500 μM (FIG. 1). For comparison the effect of treatment with Hst5 (0-50 μM) is shown. […]

C. albicans = assay: synergism between histatin 5 and PHS: PI fluorescence after PHS preincubation, energy-rich (NaCl) or energy-depleted (NaN3); conditions: for extent of additional increase in PI-fluorescence on addition of Hst5: 25 μM PHS preincubation
Description: C. albicans (ATTC 10231), cultured aerobically at 30° C. on Sabouraud dextrose agar plates (SDA, Oxoid, Hampshire, UK) was suspended in 25 ml of Sabouraud dextrose broth in a 100 ml erlenmeyer flask. After 20 h of incubation at 30° C., 1 ml from this suspension was sub-cultured for 1-2 h in 20 ml of Sabouraud dextrose broth, to obtain a mid-log phase culture. Cells were washed twice in 1 mM potassium phosphate (PPB) or 5 mM Tris (pH 7.2), and resuspended in the same buffer to a cell density of 2 McFarland (McF) (approximately 10^7 cells/ml). Cells were suspended in 5 mM Tris buffer (pH 7.2), supplemented with either 5 mM NaCl or 5 mM NaN3. These suspensions were subsequently incubated with 0, 10, 50 and 100 μM PHS dissolved in 5 mM Tris buffer. After 60 minutes of incubation at 30° C., PI was added, and subsequently dilution series of Hst 5 in the corresponding buffer were added. Final concentration of PI was 10 μM, final concentrations of Hst5 ranged between 0 and 50 μM, final cell density was 10^7 cells/ml and final PHS concentrations were 0, 5, 25 and 50 μM. After 0, 20, 40 and 60 minutes the PI fluorescence was monitored at excitation and emission wavelengths of 544 and 620 nm, respectively, in a Fluostar Galaxy microplate fluorimeter (BMFG Labtechnologies, Offenburg, Germany).

C. albicans (ATTC 10231) [2] = assay: membrane-disruptive activity, propidium iodide fluorescence (PI assay); conditions: 1 mM PPB, after 15 and 60 minutes
Description: C. albicans (ATTC 10231), cultured aerobically at 30° C. on Sabouraud dextrose agar plates (SDA, Oxoid, Hampshire, UK) was suspended in 25 ml of Sabouraud dextrose broth in a 100 ml erlenmeyer flask. After 20 h of incubation at 30° C., 1 ml from this suspension was sub-cultured for 1-2 h in 20 ml of Sabouraud dextrose broth, to obtain a mid-log phase culture. Cells were washed twice in 1 mM potassium phosphate (PPB) or 5 mM Tris (pH 7.2), and resuspended in the same buffer to a cell density of 2 McFarland (McF) (approximately 10^7 cells/ml).
Membrane-disruptive activity of Hst5 and phytosphingosine (PHS) was determined by monitoring the fluorescence enhancement of propidium iodide (Invitrogen, Breda, The Netherlands) in Hst5- or PHS treated cells. The membrane impermeant propidium iodide (PI) only enters membrane-compromised cells, after which the fluorescence of this probe is enhanced 20-30-fold due to its binding to nucleic acids.
Cells obtained by the method described above were suspended in 1 mM PPB buffer (pH 7.2) supplemented with PI (final concentration 10 μM) and subsequently added to two-fold serial dilutions of Hst5 (50 μM down to 0.045 μM) or PHS (500 down to 0.5 μM). Final cell density in the assay was 1 McF. […]

Row | Molecule | concentration at which complete killing was reached (C. albicans (ATTC 10231) [1]) | PI fluorescence induced by PHS preincubation alone (C. albicans; 25 μM PHS in the presence of NaN3, vs control with NaCl) | effect of PHS pretreatment on sensitivity of C. albicans to Hst5 (C. albicans; non-lethal dosages PHS, in particular energy-depleted conditions) | effect of PHS preincubation on Hst5-mediated influx of PI (C. albicans; preincubation with 25 or 50 μM PHS, NaCl, 6.1 μM Hst5, relative to 0 μM PHS) | concentration needed to induce uptake of PI, Hst5 compared with PHS (C. albicans (ATTC 10231) [2]) | extent of additional increase in PI-fluorescence on addition of Hst5 (C. albicans; NaCl control (energy-rich)) | extent of additional increase in PI-fluorescence on addition of Hst5 (C. albicans; NaN3 (energy-depleted)) | effect of energy-depletion on sensitivity of C. albicans to the substance (C. albicans; 5 mM NaN3 vs 5 mM NaCl in 5 mM Tris, t=0 and t=20 min) | lowest Hst5 concentration with immediate additional increase in PI fluorescence (C. albicans; after pre-incubation with 25 μM PHS, NaCl, t=0)
1 | CCCCCCCCCCCCCC[C@@H](O)[C@@H](O)[C@@H](N)CO [PHS, phytosphingosine] | 250 µM | induces an increase in PI fluorescence, comparable to that of the control | increases its sensitivity to Hst5 | instantaneously accelerates the Hst5-mediated influx of PI |  |  |  |  | 
2 | histatin 5 (DSHAKRHHGYKRKFHEKHHSHRGY) [Hst5] | 10 µM |  |  |  | induced the uptake of PI at much lower concentrations | 1000 fluorescence units | approx 500 fluorescence units | energy-depletion protects C. albicans against Hst5 | 0.75 µM
